Experimental data taken from patent publication US10745703B2, “Compositions and methods for treating cancer” (CASE WESTERN RESERVE UNIVERSITY, priority 2009, dated 2020).
Entries after “also recorded” stand apart in the source; their conditions may differ. Where a SMILES comes first, the peptide text is derived from it. The star is where a group is joined. Decanoyl = CCCCCCCCCC(=O)*; Cbz = O=C(OCc1ccccc1)*; CH2Cl = ClC*

Legend:
Assay type in all cases: cell-based, human
U-87 MG cells = test: Scratch wound assay, U-87 MG cells
Method: U-87 MG cells were infected with control or PTPμ shRNA lentivirus. After three days, confluent monolayers of cells were scratched with a 20 μl pipette tip to induce a wound. The wounded edges were imaged using a Nikon (Tokyo, Japan) TE200 inverted microscope and Spot RT digital camera and image acquisition software (Diagnostic Instruments, Inc., Sterling Heights, Mich.) Images were collected with a 10× objective 0, 6, 24, and 48 hours after wounding. Images were quantitated using MetaMorph software (Molecular Devices, Downingtown, Pa.) by measuring the width of the wound at each time point. The difference between the width of the wound at the zero time point and the time point being analyzed was divided by two. This value reflects the distance migrated by the leading edge of one side of the wound during a given time interval. Replicates were averaged and plotted using Microsoft Excel. Error bars indicate standard error. Data were analyzed for statistical significance using an unpaired student's t-test. Rac1 inhibition studies were performed using a Rac1-specific inhibitor from Calbiochem (Gibbstown, N.J.) (J Biol Chem. 2005;280:37516-37525; Proc Natl Acad Sci USA. 2004;101:7618-7623). For morphological studies, the inhibitor was dissolved in water and added at a final concentration of 100 μM just prior to scratching the cells. Cells were analyzed after 6 hours. For migration studies, the inhibitor was dissolved in water and added at a final concentration of 50 μM just prior to scratching the cells. Cells were analyzed after 24 hours.

LN-229 cells = test: Scratch wound assay, LN-229 cells; conditions: for PTPμ fragment-mediated cell migration: LN-229 cells, DAPT 2 μM, GM6001 50 μM; for migration of LN-229 cells: peptide 5 μM, versus scrambled control, 24 hours
Method: Confluent monolayers of cells were scratched to induce a wound and analyzed by microscopy for the distance migrated by the leading edge of the wound at 0 and 24 hrs.
(§1) The Furin Inhibitor I (Dec-RVKR-CMK, Calbiochem, Gibbstown, N.J.) was used at 50 μM for 17-20 hours. The γ-secretase inhibitors DAPT (Sigma-Aldrich) and L-685,458 (Sigma-Aldrich) were used at 2 μM and 5 μM, respectively, for 17-20 hours. The proteasome was inhibited with MG132 (Sigma-Aldrich) at 20 μM or epoxomicin (Calbiochem) at 5 μM for 4 hours. GM6001 (Calbiochem) was used at 50 μM as an MMP/ADAM inhibitor for 17-20 hours. Inhibitors were reconstituted in DMSO, which was used as a vehicle control. […] The PTPμ wedge peptide and a scrambled control peptide were synthesized to include a membrane-penetrant Tat-derived sequence at the C-terminus to promote cellular uptake. Peptides synthesized by Genemed Synthesis (San Antonio, Tex.) or GenScript (Piscataway, N.J.) were reconstituted in water and added to cells at a final concentration of 5 μM.

PTPμ = test: Proteolytic processing of PTPμ in LN-229 cells treated with protease inhibitors (biotinylation, immunoprecipitation, immunoblot); conditions: for endogenous PTPμ PΔE and ICD fragments: parental LN-229 cells, immunoprecipitation SK-18, immunoblot SK-7; for PTPμ PΔE and ICD fragments: total lysates of LN-229 cells overexpressing PTPμ or PTPμ-GFP; for furin cleavage of PTPμ (full-length PTPμ at the cell surface, P-subunit formation): LN-229 cells, cell surface biotinylation, inhibitor 50 μM, 17-20 hours
Method: Cell lysates were prepared and immunoblotted using normalized samples of ˜20 μg protein detected with monoclonal antibodies recognizing the intracellular segment of PTPμ (SK-7 or SK-18) (Mol Cell Biochem 1993; 127-128: 131-41). An antibody against vinculin was from Sigma-Aldrich (St. Louis, Mo.). The GFP antibody JL-8 was from Clontech (Mountain View, Calif.).
Cell surface biotinylation was performed using a Sulfo-NHS-SS-Biotin Kit (Pierce). Biotinylated proteins were isolated and resolved by SDS-PAGE on 6% gels followed by immunoblotting with an antibody to PTPμ (SK-18) as described (Mol Cancer Res 2008; 6: 1106-13).
as §1
Cells were grown to confluence, treated with inhibitors, and lysed in 20 mM Tris-HCL, pH 7.5, 1% Triton X-100, 150 mM NaCl, 2 mM EDTA, 1 mM benzamidine, aprotinin (5 μg/ml), leupeptin (5 μg/ml) and pepstatin (1 μg/ml). Samples were sonicated and centrifuged at 10,000 rpm for 5 minutes. Immunoprecipitations from ˜400 μg total protein were performed using a PTPμ antibody (SK-18) and resolved by SDS-PAGE on 8% gels followed by immunoblotting with an antibody to PTPμ (SK-7).

CCN(CC)CCCC(C)Nc1nc(C)cc(Nc2ccc3nc(C)cc(N)c3c2)n1 (racemic) [Rac1 inhibitor]
induction of lamellipodia in cells with reduced PTPμ expression (U-87 MG cells; U-87 MG cells with PTPμ shRNA #1, inhibitor 100 μM, 6 hours): prevented the induction of lamellipodia; also recorded: blocked the formation of PTPμ-induced lamellipodia | migration induced by the loss of PTPμ (distance migrated by leading edge) (U-87 MG cells; U-87 MG cells with PTPμ shRNA, inhibitor 50 μM, 24 hours): significantly suppressed the migration; also recorded: significantly reduced the migration | effect on morphology of control U-87 MG cells (U-87 MG cells; control shRNA U-87 MG cells, inhibitor 100 μM, 6 hours): no effect on morphology

C[C@H](NC(=O)Cc1cc(F)cc(F)c1)C(=O)N[C@H](C(=O)OC(C)(C)C)c1ccccc1 [DAPT]
PTPμ fragment-mediated cell migration (LN-229 cells): increased migration | endogenous PTPμ PΔE and ICD fragments (PTPμ): stabilized a fragment that corresponds by molecular weight to a membrane-tethered truncated P-subunit termed PΔE | PTPμ PΔE and ICD fragments (PTPμ): accumulation of PTPμ PΔE and ICD; also recorded: stabilized

CCCCCCCCCC(=O)N[C@@H](CCCN=C(N)N)C(=O)N[C@H](C(=O)N[C@@H](CCCCN)C(=O)N[C@@H](CCCN=C(N)N)C(=O)CCl)C(C)C [Furin Inhibitor I, Dec-RVKR-CMK] (Decanoyl-RVKR-CH2Cl)
furin cleavage of PTPμ (full-length PTPμ at the cell surface, P-subunit formation) (PTPμ; listed as inhibitor of furin): prevented P-subunit formation | furin cleavage of PTPμ (full-length PTPμ at the cell surface, P-subunit formation) (PTPμ; listed as inhibitor of furin activity): accumulation of full-length PTPμ (200 kDa) at the cell surface

CNC(=O)[C@H](Cc1c[nH]c2ccccc12)NC(=O)[C@@H](CC(=O)NO)CC(C)C [GM6001]
PTPμ fragment-mediated cell migration (LN-229 cells): decreased migration | endogenous PTPμ PΔE and ICD fragments (PTPμ): limited the formation of PTPμ PΔE and ICD fragments

CC(C)C[C@H](NC(=O)[C@H](Cc1ccccc1)C[C@@H](O)[C@H](Cc1ccccc1)NC(=O)OC(C)(C)C)C(=O)N[C@@H](Cc1ccccc1)C(N)=O [L685,458, L-685,458]
PTPμ PΔE and ICD fragments (PTPμ): accumulation of PTPμ PΔE and ICD; also recorded: stabilized

CC(C)C[C@@H](C=O)NC(=O)[C@H](CC(C)C)NC(=O)[C@H](CC(C)C)NC(=O)OCc1ccccc1 [MG132] (Cbz-Leu-Leu-Leu-aldehyde)
endogenous PTPμ PΔE and ICD fragments (PTPμ): accumulation of both PΔE and a soluble fragment termed PTPμ intracellular domain (ICD); also recorded: stabilized | PTPμ PΔE and ICD fragments (PTPμ): accumulation of PTPμ PΔE and ICD; also recorded: stabilized

CC[C@H](C)[C@H](NC(=O)[C@H]([C@@H](C)CC)N(C)C(C)=O)C(=O)N[C@H](C(=O)N[C@@H](CC(C)C)C(=O)[C@@]1(C)CO1)[C@@H](C)O [epoxomicin]
PTPμ PΔE and ICD fragments (PTPμ): Stabilization of PTPμ ICD; also recorded: stabilized

PTPμ wedge peptide: Peptide targeting the helix-loop-helix wedge domain of PTPμ with a membrane-penetrant Tat-derived sequence at the C-terminus (likely SEQ ID NO: 5) (DLLQHITQMKCAEGYGFKEEYESGRKKRRQRRRC)
migration of LN-229 cells (LN-229 cells): significantly reduced migration | migration of LN-229 cells (LN-229 cells; listed as PTPμ wedge inhibitor peptide): statistically significant difference in migration
